According to article PMC7702303, “Biochemical and transcript level differences between the three human phosphofructokinases show optimisation of each isoform for specific metabolic niches” (Biochemical Journal, 2020):
Where “and” joins values, the source holds several entries; their conditions need not be identical. Equal entries are not always repeated. Where two headings read alike, the source gives them in different places.

Columns and labels:
recombinant human PFK-M = target: T1, recombinant human PFK-M (Homo sapiens, UniProt P08237); assay: ALDO-TIM-G3PDH enzyme-linked kinetic assay, PFK-M; format: biochemical; design: VmaxATP + modulator / VmaxF6P + modulator / K0.5ATP + modulator / K0.5F6P + modulator: unit not given here
T1 construct: made in house; host or cells: PFK-deficient Saccharomyces cerevisiae
T1 sequence (P08237 1-780): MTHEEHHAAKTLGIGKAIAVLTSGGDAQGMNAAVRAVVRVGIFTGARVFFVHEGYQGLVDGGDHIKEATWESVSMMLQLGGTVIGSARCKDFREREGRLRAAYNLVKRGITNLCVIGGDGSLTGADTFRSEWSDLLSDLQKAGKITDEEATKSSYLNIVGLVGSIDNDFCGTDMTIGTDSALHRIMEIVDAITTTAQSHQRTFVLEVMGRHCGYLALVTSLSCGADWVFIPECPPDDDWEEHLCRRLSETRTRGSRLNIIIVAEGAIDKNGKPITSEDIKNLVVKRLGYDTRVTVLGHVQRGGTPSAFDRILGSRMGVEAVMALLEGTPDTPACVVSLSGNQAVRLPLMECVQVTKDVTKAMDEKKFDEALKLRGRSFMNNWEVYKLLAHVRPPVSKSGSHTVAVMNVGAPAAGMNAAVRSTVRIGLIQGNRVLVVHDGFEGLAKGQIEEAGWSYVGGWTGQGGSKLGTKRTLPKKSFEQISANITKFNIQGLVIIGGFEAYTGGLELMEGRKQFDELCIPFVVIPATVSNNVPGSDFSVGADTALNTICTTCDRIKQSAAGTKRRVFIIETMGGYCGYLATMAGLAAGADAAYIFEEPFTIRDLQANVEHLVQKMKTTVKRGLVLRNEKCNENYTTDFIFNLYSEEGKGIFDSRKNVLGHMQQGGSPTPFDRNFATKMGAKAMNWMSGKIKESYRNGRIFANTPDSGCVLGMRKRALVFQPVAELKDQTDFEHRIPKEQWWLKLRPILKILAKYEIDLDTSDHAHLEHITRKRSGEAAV
Description: Recombinant human PFKs were expressed in PFK-deficient Saccharomyces cerevisiae and purified using the methods described previously, adapting earlier materials and protocols. Production of PFK intended for use in ATP titration experiments used 1 mM F6P as a tetramer stabilising agent in protein purification and storage buffers. Production of PFK intended for use in F6P titration experiments used 1 mM ATP as a tetramer stabilising agent in protein purification and storage buffers. Experimental details on the purification and characterisation procedures including figures showing SDS–PAGE gels of the highly pure PFKs used in the kinetic experiments described in this work have been recently published.
Assay buffer consisted of 50 mM TEA, 100 mM KCl, 10 mM MgCl2, 1 mM Tris(2-carboxyethyl)phosphine hydrochloride (TCEP), 10% glycerol, pH 7.4. Assay mix consisted of 5 units/ml glycerol-3-phosphate dehydrogenase (G3PDH, Sigma–Aldrich G6880), 2.5 units/ml aldolase (Sigma–Aldrich A2714), 25 units/ml triosephosphate isomerase (TIM, Sigma–Aldrich T6258), and 1.25 mM NADH. ATP and F6P were obtained from Sigma–Aldrich (A2383 and F3627, respectively). For ATP titrations, 38 µl of buffer or ligand were added to a clear non-binding 96-well plate. 40 µl of assay mix containing 10 mM F6P (final concentration 4 mM) was added and the plate was incubated at 25°C for 5 min. An amount of 2 µl of PFK isoforms were added to each well from stock concentrations of 150 µg/ml and the reaction was immediately started with 20 µl of ATP at varying concentrations. For F6P titrations, 30 µl of buffer or ligand was added to a clear non-binding 96-well plate. An amount of 40 µl of assay mix containing 1.25 mM ATP (final concentration 0.5 mM) was added and the plate was incubated at 25°C for 5 min. An amount of 5 µl of PFK isoforms were added to each well from stock concentrations of 200 µg/ml and the reaction was immediately started with 20 µl F6P at varying concentrations. All ligands and substrates (including ATP) were used at pH 7.4. All metabolites were obtained from Sigma–Aldrich unless otherwise stated. […] A SpectraMax M5 Multi-Mode Microplate Reader was used to measure A340nm at 13 s intervals for 10 min. All experiments were performed in triplicate unless otherwise stated.
Time-dependent absorbance change was converted into rate of NADH oxidation (µM s^−1) or specific activity (µmol min^−1 mg protein^−1) using the Beer-Lambert law (molar extinction coefficient of NADH 6.22 mM^−1 cm^−1). The initial rate of reaction was used to avoid accumulation of ADP, which activates PFK, interfering with the determination of kinetic properties. Non-linear regression analysis was performed on substrate titration data using GraphPad Prism 7, with curves fitted using allosteric sigmoidal models, enabling determination of steady-state kinetic values.

PFK = test system: PFK; design: key to Effect (activator or inhibitor of PFK): “+” indicates activator; “-“ indicates inhibitor; details: cited from earlier work; for IC50 / IC50 or AC50 (activator): ref Moreno-Sanchez et al., 2012; for IC50: read-out: IC50 or AC50 (inhibitor); for Effect (activator or inhibitor of PFK): published literature, ref selected references in Supplementary Table 1
[1] = first of three values marked *, asterisk not explained
[2] = second of three values marked *, asterisk not explained
[3] = third of three values marked *, asterisk not explained
[4] = ATP titration, F6P 4 mM, n = 6, mean (SD)
[5] = GTP titration, F6P 4 mM, n = 3, mean (SD)
[6] = modulator 10 µM, ATP 0.5mM, N=3, mean (SD)
[7] = modulator 10 µM, F6P 4mM, N=3, mean (SD)

Compound: O=C(O)CC(O)(CC(=O)O)C(=O)O [Citrate]
- IC50 (recombinant human PFK-M; dose-response, read-out: IC50^citrate): 982 ± 109 µM
- change in kcat^ATP/K0.5^ATP compared with control PFK without modulator (recombinant human PFK-M; modulator 600 µM): +5%
- change in kcat^F6P/K0.5^F6P compared with control PFK without modulator (recombinant human PFK-M; modulator 600 µM): −36%
- IC50 (PFK; [1]): 5900 µM
- Effect (activator or inhibitor of PFK) (PFK): -
- IC50 (PFK; [2]): 490 µM
- IC50 (PFK; [3]): 6700 µM

Compound: Nc1ncnc2c1ncn2[C@@H]1O[C@H](COP(=O)(O)OP(=O)(O)O)[C@@H](O)[C@H]1O [ADP]
- effect on PFK activity, in words (recombinant human PFK-M): inhibiting
- change in kcat^ATP/K0.5^ATP compared with control PFK without modulator (recombinant human PFK-M; modulator 600 µM): −52%
- change in kcat^F6P/K0.5^F6P compared with control PFK without modulator (recombinant human PFK-M; modulator 600 µM): −13%
- Effect (activator or inhibitor of PFK) (PFK): +

Compound: Nc1ncnc2c1ncn2[C@@H]1O[C@H](COP(=O)(O)OP(=O)(O)OP(=O)(O)O)[C@@H](O)[C@H]1O [ATP]
- decrease in specificity constant (ATP inhibition) (recombinant human PFK-M; 1 mM ATP compared with 0.5 mM ATP): 21%
- increase in specific activity (recombinant human PFK-M; ATP concentration from 0.25 mM to 0.5 mM): 23%
- decrease in specific activity (recombinant human PFK-M; ATP concentration from 0.5 mM to 1 mM): 21%
- K0.5^ATP (recombinant human PFK-M; [4]): 151 µM and 152 µM and 151.8 (10.0) µM
- Vmax^ATP (recombinant human PFK-M; [4]): 38.4 (0.9) µmoles/min.mg
- kcat^ATP (recombinant human PFK-M; [4]): 56.0 (1.2) s^−1
- kcat^ATP/K0.5^ATP (recombinant human PFK-M; [4]): 0.37 s^−1 µM^−1 and 0.37 (0.12) s^−1 µM^−1
- h (ATP) (recombinant human PFK-M; Hill value, ATP titration, F6P 4 mM, n = 6, mean (SD)): 1.03 (0.05)
- IC50 (PFK; [1]): 1100 µM
- Effect (activator or inhibitor of PFK) (PFK): -
- IC50 (PFK; [2]): 2900 µM
- IC50 (PFK; [3]): 1750 µM

Compound: Nc1nc2c(ncn2[C@@H]2O[C@H](COP(=O)(O)OP(=O)(O)OP(=O)(O)O)[C@@H](O)[C@H]2O)c(=O)[nH]1 [GTP]
- K0.5^GTP (recombinant human PFK-M; [5]): 97 µM and 96.7 (8.0) µM
- Vmax^GTP (recombinant human PFK-M; [5]): 17.82 (0.44) µmoles/min.mg
- kcat^GTP (recombinant human PFK-M; [5]): 26.0 (0.6) s^−1
- kcat^GTP/K0.5^GTP (recombinant human PFK-M; [5]): 0.27 s^−1 µM^−1 and 0.27 (0.08) s^−1 µM^−1
- h (GTP) (recombinant human PFK-M; Hill value, GTP titration, F6P 4 mM, n = 3, mean (SD)): 1.19 (0.12)

Compound: Nc1ncnc2c1ncn2[C@@H]1O[C@H](COP(=O)(O)O)[C@@H](O)[C@H]1O [AMP]
- decrease in K0.5^F6P by AMP (recombinant human PFK-M; F6P titration): near two-fold decrease
- change in kcat^ATP/K0.5^ATP compared with control PFK without modulator (recombinant human PFK-M; modulator 1200 µM): −12%
- change in kcat^F6P/K0.5^F6P compared with control PFK without modulator (recombinant human PFK-M; modulator 1200 µM): −25%
- IC50 or AC50 (activator) (PFK; [1]): 860 µM
- Effect (activator or inhibitor of PFK) (PFK): +
- IC50 or AC50 (activator) (PFK; [2]): 5800 µM
- IC50 or AC50 (activator) (PFK; [3]): 1550 µM

Compound: C=C(OP(=O)(O)O)C(=O)O [PEP, phosphoenolpyruvate]
- change in kcat^ATP/K0.5^ATP compared with control PFK without modulator (recombinant human PFK-M; modulator 1100 µM): −11%
- change in kcat^F6P/K0.5^F6P compared with control PFK without modulator (recombinant human PFK-M; modulator 1100 µM): −7%
- Effect (activator or inhibitor of PFK) (PFK): -

Compound: O=C(CO)[C@@H](O)[C@H](O)[C@H](O)COP(=O)(O)O [F6P, fructose 6-phosphate]
- K0.5^F6P (recombinant human PFK-M; F6P titration, ATP 0.5 mM, n = 6, mean (SD)): 147 µM and 147.1 (13.6) µM

Compound: O=P(O)(O)OC[C@H]1O[C@@](CO)(OP(=O)(O)O)[C@@H](O)[C@@H]1O [F26BP, fructose 2,6-bisphosphate]
- effect on PFK activity, in words (recombinant human PFK-M): strongly activated
- allosteric constant K0.5^ATP+F26BP/K0.5^ATP (recombinant human PFK-M; ATP titration): 1.10
- AC50 (recombinant human PFK-M; activation, read-out: AC50^F26BP): 6.27 µM
- change in kcat^ATP/K0.5^ATP compared with control PFK without modulator (recombinant human PFK-M; modulator 10 µM): −7.4%
- change in kcat^F6P/K0.5^F6P compared with control PFK without modulator (recombinant human PFK-M; modulator 10 µM): +82%
- K0.5F6P + modulator (recombinant human PFK-M; [6]): 109.6 (5.3)
- VmaxF6P + modulator (recombinant human PFK-M; [6]): 5.81 (0.09)
- K0.5ATP + modulator (recombinant human PFK-M; [7]): 165.2 (9.2)
- VmaxATP + modulator (recombinant human PFK-M; [7]): 38.80 (0.75)
- IC50 or AC50 (activator) (PFK; first of three values marked *, unit inferred): 0.53 µM
- Effect (activator or inhibitor of PFK) (PFK): +
- IC50 or AC50 (activator) (PFK; second of three values marked *, unit inferred): 4.6 µM
- IC50 or AC50 (activator) (PFK; third of three values marked *, unit inferred): 0.58 µM
